# Source: publication PMC8523698, “Preclinical characterization of an intravenous coronavirus 3CL protease inhibitor for the potential treatment of COVID19” (Nature Communications, 2021)
# pIC50: −log10 of the molar value. Values joined by “and” are separate entries in the source; they are usually repeats but may differ in a detail not shown here. Equal entries are not always repeated. Where two headings read alike, the source gives them in different places.
# Assays:
# CYP2C8 = target: T1, CYP2C8 (Homo sapiens, UniProt P10632); test: Reversible CYP inhibition in human liver microsomes; conditions: human, microsomes, pH 7.4, Percent of Control Activity; for activity at 93.5 µM: CYP 2C8, 93.5 µM; for activity at 200 µM: CYP 2C8, 200 µM
# T1 sequence (P10632 1-490): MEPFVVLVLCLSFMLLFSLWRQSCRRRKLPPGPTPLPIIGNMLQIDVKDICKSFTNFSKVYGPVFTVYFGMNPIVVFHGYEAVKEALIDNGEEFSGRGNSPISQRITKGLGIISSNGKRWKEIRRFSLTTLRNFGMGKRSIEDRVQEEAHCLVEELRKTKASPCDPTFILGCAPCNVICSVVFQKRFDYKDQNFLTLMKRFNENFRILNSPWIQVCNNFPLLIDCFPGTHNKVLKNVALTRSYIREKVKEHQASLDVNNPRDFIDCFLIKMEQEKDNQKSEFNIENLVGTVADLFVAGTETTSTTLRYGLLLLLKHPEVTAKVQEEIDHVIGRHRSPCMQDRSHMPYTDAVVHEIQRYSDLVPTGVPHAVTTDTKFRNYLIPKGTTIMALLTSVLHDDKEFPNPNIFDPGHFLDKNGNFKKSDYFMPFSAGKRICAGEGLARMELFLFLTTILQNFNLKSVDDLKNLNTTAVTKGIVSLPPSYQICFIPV
# CYP3A4/5 = test: as above; conditions: for pIC50: at approximately KM
# OATP1B1 = target: T2, OATP1B1 (Homo sapiens, UniProt Q9Y6L6); test: Transporter inhibition using transfected HEK293 cells
# T2 sequence (Q9Y6L6 1-691): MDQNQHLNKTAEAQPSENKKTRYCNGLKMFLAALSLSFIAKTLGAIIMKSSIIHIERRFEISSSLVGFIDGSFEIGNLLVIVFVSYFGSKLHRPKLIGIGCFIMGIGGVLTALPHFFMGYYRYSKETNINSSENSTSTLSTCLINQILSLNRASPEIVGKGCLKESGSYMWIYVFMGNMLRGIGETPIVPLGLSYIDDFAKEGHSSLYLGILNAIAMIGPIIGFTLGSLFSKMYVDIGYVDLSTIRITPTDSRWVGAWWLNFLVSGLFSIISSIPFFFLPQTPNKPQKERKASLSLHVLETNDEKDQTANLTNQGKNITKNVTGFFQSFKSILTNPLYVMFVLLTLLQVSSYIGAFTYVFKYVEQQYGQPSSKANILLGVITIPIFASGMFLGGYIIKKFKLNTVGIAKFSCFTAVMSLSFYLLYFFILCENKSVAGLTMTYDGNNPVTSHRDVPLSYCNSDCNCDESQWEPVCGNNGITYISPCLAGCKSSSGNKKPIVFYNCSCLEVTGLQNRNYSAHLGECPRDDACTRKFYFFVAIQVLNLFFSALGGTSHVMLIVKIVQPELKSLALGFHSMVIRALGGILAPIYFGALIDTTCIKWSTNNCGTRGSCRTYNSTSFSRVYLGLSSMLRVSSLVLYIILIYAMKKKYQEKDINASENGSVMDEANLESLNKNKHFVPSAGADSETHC
smiles,measurement,setting,value
COc1cccc2[nH]c(C(=O)N[C@@H](CC(C)C)C(=O)N[C@@H](C[C@@H]3CCNC3=O)C(=O)CO)cc12 [PF-00835231],activity at 43.8 µM,"CYP2C8; CYP 2C8, 43.8 µM, Zero-Minute Preincubation",91.9%
same,activity at 93.5 µM,CYP2C8; 30-Minute Preincubation,76.7%
same,activity at 93.5 µM,CYP2C8; Zero-Minute Preincubation,91.2%
same,activity at 200 µM,CYP2C8; 30-Minute Preincubation,62.8%
same,activity at 200 µM,CYP2C8; Zero-Minute Preincubation,79.6%
same,Percent of Control Activity,"CYP3A4/5; CYP 3A4/5 (mdz), 0.214 µM, 30-Minute Preincubation",105.3%
same,Percent of Control Activity,"CYP3A4/5; CYP 3A4/5 (mdz), 0.979 µM, 30-Minute Preincubation",106.9%
same,Percent of Control Activity,"CYP3A4/5; CYP 3A4/5 (mdz), 2.09 µM, 30-Minute Preincubation",110.4%
same,Percent of Control Activity,"CYP3A4/5; CYP 3A4/5 (mdz), 4.48 µM, 30-Minute Preincubation",94.3%
same,Percent of Control Activity,"CYP3A4/5; CYP 3A4/5 (mdz), 20.5 µM, 30-Minute Preincubation",83.5%
same,Percent of Control Activity,"CYP3A4/5; CYP 3A4/5 (mdz), 20.5 µM, Zero-Minute Preincubation",117.3%
same,Percent of Control Activity,"CYP3A4/5; CYP 3A4/5 (mdz), 43.8 µM, 30-Minute Preincubation",84.8%
same,Percent of Control Activity,"CYP3A4/5; CYP 3A4/5 (mdz), 93.5 µM, 30-Minute Preincubation",72.6%
same,Percent of Control Activity,"CYP3A4/5; CYP 3A4/5 (mdz), 200 µM, 30-Minute Preincubation",50.6% and 46.7%
same,Percent of Control Activity,"CYP3A4/5; CYP 3A4/5 (mdz), 200 µM, Zero-Minute Preincubation",109.5%
same,Percent of Control Activity,"CYP3A4/5; CYP 3A4/5 (tst), 0.214 µM, 30-Minute Preincubation",110.1%
same,Percent of Control Activity,"CYP3A4/5; CYP 3A4/5 (tst), 0.214 µM, Zero-Minute Preincubation",116.0% and 141.9%
same,Percent of Control Activity,"CYP3A4/5; CYP 3A4/5 (tst), 0.979 µM, 30-Minute Preincubation",122.3%
same,Percent of Control Activity,"CYP3A4/5; CYP 3A4/5 (tst), 0.979 µM, Zero-Minute Preincubation",120.0% and 100.0%
same,Percent of Control Activity,"CYP3A4/5; CYP 3A4/5 (tst), 2.09 µM, 30-Minute Preincubation",146.9% and 144.6% and 107.9%
same,Percent of Control Activity,"CYP3A4/5; CYP 3A4/5 (tst), 2.09 µM, Zero-Minute Preincubation",128.1%
same,Percent of Control Activity,"CYP3A4/5; CYP 3A4/5 (tst), 4.48 µM, 30-Minute Preincubation",142.0% and 164.4%
same,Percent of Control Activity,"CYP3A4/5; CYP 3A4/5 (tst), 4.48 µM, Zero-Minute Preincubation",92.4% and 117.7% and 97.0%
same,Percent of Control Activity,"CYP3A4/5; CYP 3A4/5 (tst), 20.5 µM, 30-Minute Preincubation",84.0%
same,Percent of Control Activity,"CYP3A4/5; CYP 3A4/5 (tst), 20.5 µM, Zero-Minute Preincubation",71.0% and 70.3%
same,Percent of Control Activity,"CYP3A4/5; CYP 3A4/5 (tst), 43.8 µM, 30-Minute Preincubation",71.6%
same,Percent of Control Activity,"CYP3A4/5; CYP 3A4/5 (tst), 43.8 µM, Zero-Minute Preincubation",96.7%
same,Percent of Control Activity,"CYP3A4/5; CYP 3A4/5 (tst), 93.5 µM, 30-Minute Preincubation",42.9% and 41.8%
same,Percent of Control Activity,"CYP3A4/5; CYP 3A4/5 (tst), 93.5 µM, Zero-Minute Preincubation",60.1%
same,Percent of Control Activity,"CYP3A4/5; CYP 3A4/5 (tst), 200 µM, 30-Minute Preincubation",26.6%
same,Percent of Control Activity,"CYP3A4/5; CYP 3A4/5 (tst), 200 µM, Zero-Minute Preincubation",39.6% and 35.7%
same,pIC50,"CYP3A4/5; human, human liver microsomes, pH 7.4, probe midazolam (1′-hydroxylation), IC50, Midazolam 1′-hydroxylation, T0",< 3.70
same,pIC50,"CYP3A4/5; human, human liver microsomes, pH 7.4, probe midazolam (1′-hydroxylation), IC50, Midazolam 1′-hydroxylation, T30",< 3.70
same,activity at 0.1 µM,"CYP3A4/5; human, human liver microsomes, pH 7.4, probe midazolam (mdz), Percent of Control Activity, CYP 3A4/5 (mdz), 0.1 µM, 30-Minute Preincubation",113%
same,activity at 0.214 µM,"CYP3A4/5; human, human liver microsomes, pH 7.4, probe midazolam (mdz), Percent of Control Activity, CYP 3A4/5 (mdz), 0.214 µM, 30-Minute Preincubation",111%
same,activity at 0.214 µM,"CYP3A4/5; human, human liver microsomes, pH 7.4, probe midazolam (mdz), Percent of Control Activity, CYP 3A4/5 (mdz), 0.214 µM, Zero-Minute Preincubation",107%
same,activity at 0.979 µM,"CYP3A4/5; human, human liver microsomes, pH 7.4, probe midazolam (mdz), Percent of Control Activity, CYP 3A4/5 (mdz), 0.979 µM, 30-Minute Preincubation",113%
same,activity at 0.979 µM,"CYP3A4/5; human, human liver microsomes, pH 7.4, probe midazolam (mdz), Percent of Control Activity, CYP 3A4/5 (mdz), 0.979 µM, Zero-Minute Preincubation",115%
same,activity at 2.09 µM,"CYP3A4/5; human, human liver microsomes, pH 7.4, probe midazolam (mdz), Percent of Control Activity, CYP 3A4/5 (mdz), 2.09 µM, 30-Minute Preincubation",112%
same,activity at 2.09 µM,"CYP3A4/5; human, human liver microsomes, pH 7.4, probe midazolam (mdz), Percent of Control Activity, CYP 3A4/5 (mdz), 2.09 µM, Zero-Minute Preincubation",100%
same,activity at 4.48 µM,"CYP3A4/5; human, human liver microsomes, pH 7.4, probe midazolam (mdz), Percent of Control Activity, CYP 3A4/5 (mdz), 4.48 µM, 30-Minute Preincubation",106%
same,activity at 43.8 µM,"CYP3A4/5; human, human liver microsomes, pH 7.4, probe midazolam (mdz), Percent of Control Activity, CYP 3A4/5 (mdz), 43.8 µM, 30-Minute Preincubation",88.1%
same,activity at 93.5 µM,"CYP3A4/5; human, human liver microsomes, pH 7.4, probe midazolam (mdz), Percent of Control Activity, CYP 3A4/5 (mdz), 93.5 µM, 30-Minute Preincubation",72.3%
same,activity at 93.5 µM,"CYP3A4/5; human, human liver microsomes, pH 7.4, probe midazolam (mdz), Percent of Control Activity, CYP 3A4/5 (mdz), 93.5 µM, Zero-Minute Preincubation",113%
same,activity at 200 µM,"CYP3A4/5; human, human liver microsomes, pH 7.4, probe midazolam (mdz), Percent of Control Activity, CYP 3A4/5 (mdz), 200 µM, 30-Minute Preincubation",54.3%
same,activity at 200 µM,"CYP3A4/5; human, human liver microsomes, pH 7.4, probe midazolam (mdz), Percent of Control Activity, CYP 3A4/5 (mdz), 200 µM, Zero-Minute Preincubation",107%
same,pIC50,"CYP3A4/5; human, human liver microsomes, pH 7.4, probe testosterone (6β-hydroxylation), IC50 (confidence interval), Testosterone 6β-hydroxylation, T0",3.97
same,pIC50,"CYP3A4/5; human, human liver microsomes, pH 7.4, probe testosterone (6β-hydroxylation), IC50 (confidence interval), Testosterone 6β-hydroxylation, T30",4.20
same,"activity at 30 min, 0.1 µM","CYP3A4/5; human, human liver microsomes, pH 7.4, probe testosterone (tst), Percent of Control Activity, CYP 3A4/5 (tst), 0.1 µM, 30-Minute Preincubation",92.1%
same,activity at 0.1 µM,"CYP3A4/5; human, human liver microsomes, pH 7.4, probe testosterone (tst), Percent of Control Activity, CYP 3A4/5 (tst), 0.1 µM, Zero-Minute Preincubation",88.6%
same,"activity at 30 min, 0.214 µM","CYP3A4/5; human, human liver microsomes, pH 7.4, probe testosterone (tst), Percent of Control Activity, CYP 3A4/5 (tst), 0.214 µM, 30-Minute Preincubation",115%
same,"activity at 30 min, 0.979 µM","CYP3A4/5; human, human liver microsomes, pH 7.4, probe testosterone (tst), Percent of Control Activity, CYP 3A4/5 (tst), 0.979 µM, 30-Minute Preincubation",116%
same,"activity at 0 min, 0.979 µM","CYP3A4/5; human, human liver microsomes, pH 7.4, probe testosterone (tst), Percent of Control Activity, CYP 3A4/5 (tst), 0.979 µM, Zero-Minute Preincubation",114%
same,"activity at 0 min, 2.09 µM","CYP3A4/5; human, human liver microsomes, pH 7.4, probe testosterone (tst), Percent of Control Activity, CYP 3A4/5 (tst), 2.09 µM, Zero-Minute Preincubation",109%
same,activity at 43.8 µM,"CYP3A4/5; human, human liver microsomes, pH 7.4, probe testosterone (tst), Percent of Control Activity, CYP 3A4/5 (tst), 43.8 µM, 30-Minute Preincubation",73.4%
same,activity at 43.8 µM,"CYP3A4/5; human, human liver microsomes, pH 7.4, probe testosterone (tst), Percent of Control Activity, CYP 3A4/5 (tst), 43.8 µM, Zero-Minute Preincubation",75.3%
same,activity at 93.5 µM,"CYP3A4/5; human, human liver microsomes, pH 7.4, probe testosterone (tst), Percent of Control Activity, CYP 3A4/5 (tst), 93.5 µM, 30-Minute Preincubation",37.7%
same,activity at 93.5 µM,"CYP3A4/5; human, human liver microsomes, pH 7.4, probe testosterone (tst), Percent of Control Activity, CYP 3A4/5 (tst), 93.5 µM, Zero-Minute Preincubation",54.9%
same,activity at 200 µM,"CYP3A4/5; human, human liver microsomes, pH 7.4, probe testosterone (tst), Percent of Control Activity, CYP 3A4/5 (tst), 200 µM, 30-Minute Preincubation",15.1%
same,activity at 200 µM,"CYP3A4/5; human, human liver microsomes, pH 7.4, probe testosterone (tst), Percent of Control Activity, CYP 3A4/5 (tst), 200 µM, Zero-Minute Preincubation",36.4%
same,pIC50,OATP1B1,4.52
same,pIC50,"OATP1B1; human, HEK293 cells stably transfected with OATP1B1, pH 7.4, probe rosuvastatin (0.5 µM)",< 4.70
